{"source": "paper PMC8376047", "about": "“Complexation of uranyl (UO2)^2+ with bidentate ligands: XRD, spectroscopic, computational, and biological studies” (PLoS ONE, 2021)", "assay_in_all_cases": "UV-Vis absorption titration (Kb) and tryptophan fluorescence quenching (KSV […])", "format_in_all_cases": "binding", "key": {"[1]": {"molecular_target": "T1, human serum albumin (HSA) (Homo sapiens, UniProt P02768)", "T1 construct": "gene ALB", "T1 sequence (P02768 25-609)": "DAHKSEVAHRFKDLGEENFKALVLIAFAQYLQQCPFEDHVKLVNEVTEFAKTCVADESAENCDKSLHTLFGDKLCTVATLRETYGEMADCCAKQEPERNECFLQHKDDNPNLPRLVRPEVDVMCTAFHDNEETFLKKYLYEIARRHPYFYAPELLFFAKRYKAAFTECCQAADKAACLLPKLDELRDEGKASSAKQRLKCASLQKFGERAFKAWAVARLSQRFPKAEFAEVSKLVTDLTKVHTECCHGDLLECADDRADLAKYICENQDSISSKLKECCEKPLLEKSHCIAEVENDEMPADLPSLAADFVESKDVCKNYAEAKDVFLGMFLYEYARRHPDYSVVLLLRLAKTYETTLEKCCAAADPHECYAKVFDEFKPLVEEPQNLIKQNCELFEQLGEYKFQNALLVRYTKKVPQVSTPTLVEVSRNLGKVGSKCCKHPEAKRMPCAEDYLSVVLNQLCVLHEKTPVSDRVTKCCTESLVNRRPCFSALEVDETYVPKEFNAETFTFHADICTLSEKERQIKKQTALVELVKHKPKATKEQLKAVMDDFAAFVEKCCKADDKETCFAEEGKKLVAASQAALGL"}, "[2]": {"molecular_target": "T1, human serum albumin (HSA)", "remark": "listed apart in the source"}, "[3]": {"molecular_target": "T1, human serum albumin (HSA)", "remark": "listed apart in the source"}}, "data": [{"substance": "[(UO2)(OAc)2(CMZ)]", "values": [{"measurement": "UV-Vis absorption titration (Kb) and tryptophan fluorescence quenching (KSV 7.2×)", "setting": "[1]", "result": "2.10×10^5"}]}, {"substance": "[(UO2)(OAc)2(MP)]", "values": [{"measurement": "UV-Vis absorption titration (Kb) and tryptophan fluorescence quenching (KSV 9.75)", "setting": "[2]", "result": "2.26×10^5"}]}, {"substance": "[(UO2)(OAc)2(SCZ)]", "values": [{"measurement": "UV-Vis absorption titration (Kb) and tryptophan fluorescence quenching (KSV 9.46)", "setting": "[3]", "result": "7×10^4"}]}]}
